Values joined by “and” are separate entries in the source; they are usually repeats but may differ in a detail not shown here. Equal values may be shown once. Read-outs that look alike come from different tables or passages of the source.
Experiments:
rat hepatocytes [1] = test: mass measurements of phospholipids, total sphingolipids and free long-chain bases in hepatocytes; format: cell-based; settings: for Mass Phosphatidylcholine / Mass Phosphatidylethanolamine / Mass Phosphatidylserine / Mass Total sphingolipids: 16 h
Protocol: Mass measurements of the long-chain bases were conducted by HPLC, as is known in the art as previously described in (28), with C20-sphinganine as an internal standard. To quantitate total sphingolipids, the extracts were acid hydrolyzed before preparing the samples for HPLC and corrected, if necessary, for any losses during hydrolysis or extraction by spiking replicate samples with a known amount of ceramide or sphingomyelin.

rat hepatocytes [2] = test: hepatocyte viability (trypan blue exclusion); format: cell-based; settings: 1 μM, 4 d
[3] = test system: de novo sphingolipid biosynthesis; test: de novo sphingosine biosynthesis from [14C]serine in hepatocytes
Protocol: Hepatocyte culture—Hepatocytes were prepared by a collagenase perfusion method, as known in the art as described in (22), from male Sprague-Dawley rats (125 to 200 g) fed a chow diet (Ralston Purina, St. Louis, Mo.) ad libitum. The hepatocytes were isolated using carefully aseptic procedures and plated in 60 mm tissue culture dishes coated with collagen for short term (<24 h) or with Matrigel for longer term (3 to 4 d) experiments. After plating for 4 h, the medium was changed to 2 ml of DMEM (with 3.7 g/L NaHCO3) containing 10 μg/ml f insulin, 6.1 g/L of penicillin, 10 g/L of streptomycin sulfate, and varying concentrations of fumonisins (added from a 1 mM solution in Delbecco's phosphate buffered saline). The cells were maintained in a tissue culture incubator at 37° C. and an atmosphere of 5% CO2; the medium was changed every 24 h.
Lipid analyses—The de novo biosynthesis of sphingosine was measured, as known in the art as described in (23,24). Briefly, cells that had been exposed to fumonisins for 0 to 4 d were changed to new medium containing 10 μCi of [^14C]serine (25 mCi/mmol) in 2 ml of serine-free DMEM (Gibco) in the presence or absence of fumonisin. After incubation for 2 or 16 h, they were scraped from the dishes, 25 μg of carrier sphingosine and sphinganine were added, and the lipids were extracted and acid hydrolyzed to liberate the free long-chain bases using conditions that give optimal hydrolysis with minimal decomposition of the labile long-chain bases, as known in the art as described in (23-25). The sphinganine and sphingosine were separated by thin-layer chromatography on silica gel H (Brinkman) plates developed with CHCl,:methanol:2 N NH4OH (40:10:1, v/v/v) and the radiolabelling profile (shown in FIG. 2) was determined by radiometric scanning of the plates with a Bioscan System 200 Imaging Scanner. […] The appropriate regions of the chromatoplate were scraped, placed in scintillation vials, and 0.2 ml of water and 4 ml of a detergent based scintillation cocktail were added. After several hours, the samples were counted with the appropriate corrections for quenching.

[4] = reference 14; cited from earlier work
ceramide synthase = test: in vitro assay of ceramide synthase, rat liver microsomes; format: biochemical; settings: inhibition may be biphasic (FIG. 5), read-out: apparent IC50 for inhibition of ceramide synthase in vitro
Protocol: (§1) In vitro assays of serine palmitoyltransferase and ceramide synthase. A microsomal fraction was isolated from rat liver and assayed for serine palmitoyltransferase, as is known in the art as described in (24,29), and ceramide synthase, as is known in the art as described in (30), in the presence of varying concentrations of fumonisin B1. […] The reaction was initiated by adding palmitoyl-CoA and, after incubation at 37° C. for 15 min, the products were extracted, resolved by TLC, and quantitated as described above. Background counts were subtracted using data from identical assays that omitted palmitoyl-CoA.

[5] = reference 12; cited from earlier work
serum sphingolipids = test: long-chain bases liberated from total serum lipids by acid hydrolysis, ponies fed fumonisin; format: in vivo, pony
From the text: Feeding protocols—Clinically normal ponies of varying age and sex were conditioned on the control diet for 21 days prior to the trial. Horse 341 was a 6 year old gelding (173-193 Kg), 299 was a 12 year old mare (205-215 Kg), 164 was a 12 year old mare (206-290 Kg) and 166 was a 16 year old mare (143-164 Kg). During the conditioning period and throughout the trial, all ponies received alfalfa hay by free choice. The test groups were fed varying levels of fumonisin (15 to 44 ppm) for varying lengths of time.
Analysis of serum long-chain bases—Blood was drawn approximately twice a week, centrifuged to obtain serum, and aliquots were frozen for analyses of free sphingosine and sphinganine by HPLC as is known in the art as described in (28). To quantitate total sphingolipids in some samples, the extracts were acid hydrolyzed before preparing the samples for HPLC.

[6] = reference 13; cited from earlier work
[7] = test system: serine palmitoyltransferase; test: in vitro assay of serine palmitoyltransferase, rat liver microsomes; format: biochemical
Protocol: as §1

[8] = Pony 208, fumonisin feed (level not given), day 2
[9] = Pony 208, fumonisin feed (level not given), day 6
[10] = Pony 208, fumonisin feed (level not given), day 10
[11] = Pony 208, fumonisin feed (level not given), day 13

Q: Which results are given for `CCCC[C@@H](C)[C@@H](OC(=O)C[C@@H](CC(=O)O)C(=O)O)[C@H](C[C@@H](C)C[C@H](O)CCCC[C@@H](O)C[C@H](O)[C@H](C)N)OC(=O)C[C@@H](CC(=O)O)C(=O)O` [fumonisin B1]?
A: Mass Phosphatidylcholine (rat hepatocytes [1]; 1 μM): 105 ± 1.8 nmol/mg protein; Mass Phosphatidylethanolamine (rat hepatocytes [1]; 1 μM): 44.9 ± 1.4 nmol/mg protein; Mass Phosphatidylserine (rat hepatocytes [1]; 1 μM): 15.5 ± 2.6 nmol/mg protein; Mass Total sphingolipids (rat hepatocytes [1]; 1 μM): 6.7 ± 0.3 nmol/mg protein; fold increase of sphinganine versus control (rat hepatocytes [1]; 1 μM, 4 d): 110 fold; free sphingosine (rat hepatocytes [1]; 1 μM, 4 d): 52±1 pmol/dish; mass of free sphinganine (rat hepatocytes [1]; 1 μM, 4 d): 1499±18 pmol/dish; level of total sphingolipids (rat hepatocytes [1]; 1 μM, 4 d, cells on Matrigel): 2.1±0.1 nmol/dish; reduction of level of total sphingolipids (rat hepatocytes [1]; 1 μM, 4 d, cells on Matrigel): about half; Mass Phosphatidylcholine (rat hepatocytes [1]; 10 μM): 112 ± 3.4 nmol/mg protein; Mass Phosphatidylethanolamine (rat hepatocytes [1]; 10 μM): 44.4 ± 0.9 nmol/mg protein; Mass Phosphatidylserine (rat hepatocytes [1]; 10 μM): 12.3 ± 1.9 nmol/mg protein; Mass Total sphingolipids (rat hepatocytes [1]; 10 μM): 6.5 ± 0.7 nmol/mg protein; amount of free sphingosine (rat hepatocytes [1]; within the first 2 h (FIG. 4B)): only a small reduction; number of viable cells (rat hepatocytes [2]): no decrease; inhibition of [14C]sphingosine formation by hepatocytes ([3]; 1 μM): almost complete inhibition; de novo sphingolipid biosynthesis ([3]; 10 μM): completely blocked; amount of radiolabel in [14C]sphinganine ([3]; hepatocytes treated (FIG. 4A)): increased; IC50 ([3]; read-out: IC50 for inhibition of [14C]serine incorporation into [14C]sphingosine, rat hepatocytes, 2 h incubation (FIG. 3B)): ~0.1 µM and 0.1 µM; tumor promotion [4]: promotion of liver tumors; IC50 (ceramide synthase): ~0.1 µM; disease caused [5]: equine leucoencephalomalacia; Sphinganine Total (acid hydrolysis of serum lipids) (serum sphingolipids; Pony 164, feed 44 ppm, day 2): 169 ± 30 pmol/mL; Sphinganine Total (−free) (serum sphingolipids; Pony 164, feed 44 ppm, day 2): 99 pmol/mL; Sphingosine Total (acid hydrolysis of serum lipids) (serum sphingolipids; Pony 164, feed 44 ppm, day 2): 621 ± 99 pmol/mL; Sphingosine Total (−free) (serum sphingolipids; Pony 164, feed 44 ppm, day 2): 504 pmol/mL; Sphinganine Total (acid hydrolysis of serum lipids) (serum sphingolipids; Pony 164, feed 44 ppm, day 7): 156 pmol/mL; Sphinganine Total (−free) (serum sphingolipids; Pony 164, feed 44 ppm, day 7): 0 pmol/mL; Sphingosine Total (acid hydrolysis of serum lipids) (serum sphingolipids; Pony 164, feed 44 ppm, day 7): 254 ± 32 pmol/mL; Sphingosine Total (−free) (serum sphingolipids; Pony 164, feed 44 ppm, day 7): 102 pmol/mL; Sphinganine Total (acid hydrolysis of serum lipids) (serum sphingolipids; Pony 164, feed 44 ppm, day 10): 786 ± 234 pmol/mL; Sphinganine Total (−free) (serum sphingolipids; Pony 164, feed 44 ppm, day 10): 503 pmol/mL; Sphingosine Total (acid hydrolysis of serum lipids) (serum sphingolipids; Pony 164, feed 44 ppm, day 10): 2960 ± 585 pmol/mL; Sphingosine Total (−free) (serum sphingolipids; Pony 164, feed 44 ppm, day 10): 2740 pmol/mL; Sphinganine Total (acid hydrolysis of serum lipids) (serum sphingolipids; Pony 166, feed 44 ppm, day 2): 131 ± 40 pmol/mL; Sphinganine Total (−free) (serum sphingolipids; Pony 166, feed 44 ppm, day 2): 94 pmol/mL; Sphingosine Total (acid hydrolysis of serum lipids) (serum sphingolipids; Pony 166, feed 44 ppm, day 2): 1020 ± 313 pmol/mL; Sphingosine Total (−free) (serum sphingolipids; Pony 166, feed 44 ppm, day 2): 974 pmol/mL; Sphinganine Total (acid hydrolysis of serum lipids) (serum sphingolipids; Pony 166, feed 44 ppm, day 7): 206 ± 18 pmol/mL; Sphinganine Total (−free) (serum sphingolipids; Pony 166, feed 44 ppm, day 7): 144 pmol/mL; Sphingosine Total (acid hydrolysis of serum lipids) (serum sphingolipids; Pony 166, feed 44 ppm, day 7): 950 ± 154 pmol/mL; Sphingosine Total (−free) (serum sphingolipids; Pony 166, feed 44 ppm, day 7): 985 pmol/mL; Sphinganine Total (acid hydrolysis of serum lipids) (serum sphingolipids; Pony 166, feed 44 ppm, day 10): 212 ± 28 pmol/mL; Sphinganine Total (−free) (serum sphingolipids; Pony 166, feed 44 ppm, day 10): 34 pmol/mL; Sphingosine Total (acid hydrolysis of serum lipids) (serum sphingolipids; Pony 166, feed 44 ppm, day 10): 634 ± 192 pmol/mL; Sphingosine Total (−free) (serum sphingolipids; Pony 166, feed 44 ppm, day 10): 540 pmol/mL; Sphinganine Total (acid hydrolysis of serum lipids) (serum sphingolipids; Pony 166, feed 44 ppm, day 13): 823 ± 54 pmol/mL; Sphinganine Total (−free) (serum sphingolipids; Pony 166, feed 44 ppm, day 13): 650 pmol/mL; Sphingosine Total (acid hydrolysis of serum lipids) (serum sphingolipids; Pony 166, feed 44 ppm, day 13): 1740 ± 150 pmol/mL; Sphingosine Total (−free) (serum sphingolipids; Pony 166, feed 44 ppm, day 13): 1640 pmol/mL; Sphinganine Total (acid hydrolysis of serum lipids) (serum sphingolipids; [8]): 387 ± 26 pmol/mL; Sphinganine Total (−free) (serum sphingolipids; [8]): 107 pmol/mL; Sphingosine Total (acid hydrolysis of serum lipids) (serum sphingolipids; [8]): 3490 ± 358 pmol/mL; Sphingosine Total (−free) (serum sphingolipids; [8]): 3190 pmol/mL; Sphinganine Total (acid hydrolysis of serum lipids) (serum sphingolipids; [9]): 718 ± 75 pmol/mL; Sphinganine Total (−free) (serum sphingolipids; [9]): 60 pmol/mL; Sphingosine Total (acid hydrolysis of serum lipids) (serum sphingolipids; [9]): 2390 ± 388 pmol/mL; Sphingosine Total (−free) (serum sphingolipids; [9]): 2030 pmol/mL; Sphinganine Total (acid hydrolysis of serum lipids) (serum sphingolipids; [10]): 2040 ± 70 pmol/mL; Sphinganine Total (−free) (serum sphingolipids; [10]): 200 pmol/mL; Sphingosine Total (acid hydrolysis of serum lipids) (serum sphingolipids; [10]): 4450 ± 10 pmol/mL; Sphingosine Total (−free) (serum sphingolipids; [10]): 3460 pmol/mL; Sphinganine Total (acid hydrolysis of serum lipids) (serum sphingolipids; [11]): 9990 ± 379 pmol/mL; Sphinganine Total (−free) (serum sphingolipids; [11]): 9604 pmol/mL; Sphingosine Total (acid hydrolysis of serum lipids) (serum sphingolipids; [11]): 15970 ± 1576 pmol/mL; Sphingosine Total (−free) (serum sphingolipids; [11]): 15040 pmol/mL; disease caused [6]: porcine pulmonary edema; effect on activity of serine palmitoyltransferase in vitro ([7]; 25 μM): did not reduce; activity of serine palmitoyltransferase in vitro ([7]; in the presence of 25 μM): 88±3 pmol 3-ketosphinganine formed/min/mg of microsomal protein

— patent publication US6720184B1, “Method of altering sphingolipid metabolism and detecting fumonisin ingestion and contamination” (Emory University, priority 1991, dated 2004)
